Data set [1] relates to mPTP. The experiment in a line: mPTP activity (Ca2+ retention) assay in isolated rat liver mitochondria. The class given is biochemical. The conditions noted are these: for mPTP Rat liver pIC50: isolated rat liver mitochondria, average value from multiple experiments (n ≥ 2). In a few lines:
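Freshly isolated female Sprague Dawley rat liver mitochondria were energised with succinate and rotenone in pH 7.4 buffer with Fluo5N, then pre-incubated 10 min at RT with compound (30 μM to 1 nM final) before a 75 μM CaCl2 bolus. The IC50 used 10-min fluorescence, normalised to DMSO and 5 μM cyclosporin A.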

In data set [2] the test system is mPTP. As to the kind of experiment: mPTP activity assay in isolated rat brain mitochondria. The conditions noted are these: for mPTP Rat brain pIC50: isolated rat brain mitochondria. The class given is biochemical. Here is the method:
mPTP activity was measured in brain mitochondria freshly isolated from female Sprague Dawley (250 to 300 gram) rats. Anaesthetised rats were perfused in-situ with ˜40 ml cold Dulbecco's Phosphate Buffered Saline (DPBS), then brains dissected and transferred into 30 ml Isolation Buffer (225 mM mannitol, 75 mM sucrose, 1 mM EGTA, adjusted to pH 7.4 with 1 M NaOH). The brain was minced using tweezers and a scalpel into ˜5 mm pieces then transferred into a 50 ml Potterton Dounce homogenization tube on ice containing 10 ml ice-cold isolation buffer (as above with addition of Complete Protease inhibitor; 1 tablet per 50 ml buffer).
Homogenisation was carried out using a […] pestle at 1800 rpm. The slurry was centrifuged at 2000 g for 10 min at 4° C., then the supernatant centrifuged at 12,000 g for 9 min. The pellet was resuspended with a dounce homogeniser in isolation buffer as above but with the addition of 0.02% digitonin, centrifuged at 12,000 g for 11 min and finally resuspended in 5 ml modified isolation buffer (as above but with EGTA reduced to 0.1 mM).
Test compounds were prepared in 384 well polypropylene assay plates as described above for the liver mitochondria assay. A stock mitochondria/Fluo5N assay solution was prepared in 5.6 ml assay buffer (120 mM mannitol, 40 mM MOPS, 5 mM KH2PO4, 60 mM KCl, 10 mM pyruvate, 2 mM malate, 2 mM MgCl2, 20 μM ADP, 1.26 μM oligomycin A, adjusted to pH 7.4) supplemented with Fluo5N pentapotassium salt (2 μM) and 1 ml mitochondria suspension, then transferred (15 μl) into the assay plate containing test compounds and incubated for 10 min at RT. Assay plates were then transferred to a FLIPR Tetra plate reader (Molecular Devices). Dye fluorescence was then measured every 3 sec for a total of 10 min. After 12 sec, a 2.5 μl bolus of Ca2+ (75 μM) was added from a source plate containing 675 μM CaCl2) in FLIPR assay buffer. IC50 values for test compounds were calculated using the fluorescence value collected at the 10 min timepoint with % inhibition calculated using the DMSO control and cyclosporin A values at […].

The nature of data set [3]: Hepatocyte clearance assay, rat. The data set is classed as in vitro ADME. The conditions noted are these: cryopreserved primary rat hepatocytes, average value from two experiments, read-out: Rat heps Clint. Here is the method:
(§1) In vitro clearance studies were performed in primary rat and human hepatocytes (BiolVT). Vials of cryopreserved rat or human hepatocytes were thawed in a 37° C. water bath for 2 min. Cells were transferred into thawing medium (Williams' Medium E containing 30% Percoll, 1×GlutaMAX-1, 15 mM HEPES, 5% fetal bovine serum (FBS), 4 μg/ml insulin, 1 μM dexamethasone), centrifuged at 100 g for 10 min then resuspended in culture medium (Leibovitz's L-15 Medium) at a concentration of 0.5×10^6 viable cells/mL (number of viable cells assessed using AO/PI staining). Hepatocytes (198 μL) were transferred into wells of a 96-well non-coated plate and placed in a 37° C. incubator for 10 min. Test compound solutions were prepared from 10 mM stocks in DMSO, diluted to 100 μM in 50% (v/v in water) acetonitrile. Test compound samples (2 μl) were added to each well of hepatocytes and incubated at 37° C. Samples (25 μl) were collected at t=0, 15, 30, […] and 120 min, mixed with 6 volumes (150 μl) of acetonitrile containing internal standard (100 nM alprazolam, 200 nM caffeine and 100 nM tolbutamide), vortexed for 5 min and centrifuged for 45 min at 3220 g. An aliquot of supernatant (100 μL) was diluted with 100 μL ultra-pure water, and the mixture was used for LC/MS/MS analysis. All incubations were performed in duplicate. Peak areas were determined from extracted ion chromatograms. The slope value, k, was determined by linear regression of the natural logarithm of the remaining percentage of the parent drug vs. incubation time curve. The in vitro half-life (in vitro t½) was determined from the slope value: in vitro t½=0.693/k. Conversion of the in vitro t½ (in min) into the in vitro intrinsic clearance (in vitro CLint, in μL/min/1×10^6 cells) was done using the following equation (mean of duplicate determinations):
(§2) [formula] • V=incubation volume (0.2 mL) • N=number of hepatocytes per well (0.1×10^6 cells).

Data set [4] can be described thus: Hepatocyte clearance assay, human. The class given is in vitro ADME. The following applies: cryopreserved primary human hepatocytes, average value from two experiments, read-out: Human heps Clint. Here is the method: as §1, §2
Data set [5] can be described thus: PBS and FaSSIF solubility. The following applies: fasted state simulated intestinal fluid (FaSSIF), fassif, kinetic from dmso stock; Fasted state simulated intestinal fluid, 2 hr at 25° C.; read-out: Solubility FaSSIF. The class given is physicochemical. In a few lines:
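Solubility was measured from 10 mM DMSO stocks diluted into FaSSIF or PBS pH 7.4, in duplicate, then shaken at 1100 rpm for 2 hr at 25 °C. Filtrates were quantified by LC-MS/MS against an internal standard and a known-concentration standard.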

Structures are written as SMILES. Converted amounts (≈) assume the structure as drawn.

`Cc1c(F)cccc1NC(=O)/C=C/c1ccc2c(C#N)n[nH]c2c1` [Example 51, (E)-3-(3-cyano-1H-indazol-6-yl)-N-(3-fluoro-2-methylphenyl)acrylamide]: in data set [1], the “activity in the rat liver mitochondria assay (in words)” value is reported as “highest activity” and the “mPTP Rat liver pIC50” value came to 7.9. Besides, in data set [2], the “activity in the rat brain mitochondria assay (in words)” value is “highest activity” and the “mPTP Rat brain pIC50” value was 8.3. For the same molecule, the hepatocyte CLint at 1 µM in data set [3] turned out to be 48.1 µL/min/1e6 cells. Also, the hepatocyte CLint at 1 µM in data set [4] came out at 11 µL/min/1e6 cells.
`Cc1n[nH]c2cc(/C=C/C(=O)N[C@H]3c4ccccc4C[C@@H]3OCC3COC3)ccc12` [Example 66, (E)-3-(3-methyl-1H-indazol-6-yl)-N-((1S,2S)-2-(oxetan-3-ylmethoxy)-2,3-dihydro-1H-inden-1-yl)acrylamide]: the “mPTP Rat liver pIC50” value in data set [1] was 7.2. Besides, in data set [2], the “mPTP Rat brain pIC50” value is 7.3. The hepatocyte CLint at 1 µM is 36.1 µL/min/1e6 cells in data set [3] and 25.4 µL/min/1e6 cells in data set [4].
For `Cc1n[nH]c2cc(/C=C/C(=O)N[C@H]3c4ccccc4C[C@@H]3OCC3CC3)ccc12` [Example 67, (E)-N-((1S,2S)-2-(cyclopropylmethoxy)-2,3-dihydro-1H-inden-1-yl)-3-(3-methyl-1H-indazol-6-yl)acrylamide] the same measures were 7.2, 7.3, 73.3 µL/min/1e6 cells and 42.1 µL/min/1e6 cells.
Regarding `Cc1n[nH]c2cc(/C=C/C(=O)N[C@H]3c4ccccc4C[C@@H]3OCCF)ccc12` [Example 68, (E)-N-((1S,2S)-2-(2-fluoroethoxy)-2,3-dihydro-1H-inden-1-yl)-3-(3-methyl-1H-indazol-6-yl)acrylamide], the “mPTP Rat liver pIC50” value in data set [1] came out at 7.8. Further, the “mPTP Rat brain pIC50” value in data set [2] turned out to be 7.7. Besides, the solubility at 2 h in data set [5] was 61.7 µM (≈ 23.4 µg/mL). Besides, the hepatocyte CLint at 1 µM in data set [3] came out at 34.9 µL/min/1e6 cells; in data set [4], 12 µL/min/1e6 cells.
For `CCO[C@H]1Cc2ccccc2[C@@H]1NC(=O)/C=C/c1ccc2c(C)n[nH]c2c1` [Example 69, (E)-N-((1S,2S)-2-ethoxy-2,3-dihydro-1H-inden-1-yl)-3-(3-methyl-1H-indazol-6-yl)acrylamide] the same measures were 7.7, 7.6, 181 µM (≈ 65.3 µg/mL), 73 µL/min/1e6 cells and 17.9 µL/min/1e6 cells.
Taken in the same sequence, the figures for `COc1cc(C)c(NC(=O)/C=C/c2cc3[nH]nc(C)c3cc2F)c(C)n1` [Example 95, (2E)-3-(5-fluoro-3-methyl-1H-indazol-6-yl)-N-(6-methoxy-2,4-dimethylpyridin-3-yl)prop-2-enamide] were 7.6, 7.9, 76 µM (≈ 26.9 µg/mL), 5 µL/min/1e6 cells and 3 µL/min/1e6 cells.
Taken in the same sequence, the figures for `COc1cc(C)c(NC(=O)/C=C/c2cc3[nH]nc(Cl)c3cc2F)c(C)n1` [Example 96, (2E)-3-(3-chloro-5-fluoro-1H-indazol-6-yl)-N-(6-methoxy-2,4-dimethylpyridin-3-yl)prop-2-enamide] were 7.6, 7.8, 14 µM (≈ 5.25 µg/mL), 13 µL/min/1e6 cells and 6 µL/min/1e6 cells.
As to `COc1cc(C)c(NC(=O)/C=C/c2cc3[nH]nc(C#N)c3cc2F)c(C)n1` [Example 98, (2E)-3-(3-cyano-5-fluoro-1H-indazol-6-yl)-N-(6-methoxy-2,4-dimethylpyridin-3-yl)prop-2-enamide], in data set [1], the “mPTP Rat liver pIC50” value is 6.9. For the same molecule, the “mPTP Rat brain pIC50” value in data set [2] is recorded as 7.0. The hepatocyte CLint at 1 µM stood at 7 µL/min/1e6 cells in data set [3] and 9 µL/min/1e6 cells in data set [4].
As for `Cc1c(F)cncc1NC(=O)/C=C/c1ccc2c(C)n[nH]c2c1` [Example 110, (2E)-N-(5-fluoro-4-methylpyridin-3-yl)-3-(3-methyl-1H-indazol-6-yl)prop-2-enamide], in data set [1], the “mPTP Rat liver pIC50” value was 7.1. Besides, in data set [2], the “mPTP Rat brain pIC50” value is 6.7. Also, the hepatocyte CLint at 1 µM in data set [3] was determined as 307 µL/min/1e6 cells; in data set [4], 45 µL/min/1e6 cells.
Regarding `Cc1ncc(F)c(C)c1NC(=O)/C=C/c1ccc2c(C)n[nH]c2c1` [Example 113, (2E)-N-(5-fluoro-2,4-dimethylpyridin-3-yl)-3-(3-methyl-1H-indazol-6-yl)prop-2-enamide], in data set [1], the “mPTP Rat liver pIC50” value came to 7.7. In data set [2], the “mPTP Rat brain pIC50” value came to 7.4. For the same molecule, the solubility at 2 h in data set [5] is 8 µM (≈ 2.59 µg/mL). In addition, the hepatocyte CLint at 1 µM in data set [3] and in data set [4] was 3 µL/min/1e6 cells in each case.
On to `COCc1c(F)cnc(C)c1NC(=O)/C=C/c1ccc2c(C)n[nH]c2c1` [Example 117, (2E)-N-[5-fluoro-4-(methoxymethyl)-2-methylpyridin-3-yl]-3-(3-methyl-1H-indazol-6-yl)prop-2-enamide], for which the “mPTP Rat liver pIC50” value in data set [1] is recorded as 6.6. Besides, in data set [2], the “mPTP Rat brain pIC50” value came out at 5.9. In addition, the solubility at 2 h in data set [5] is 86 µM (≈ 30.5 µg/mL). Also, in data set [4], the hepatocyte CLint at 1 µM was 3 µL/min/1e6 cells.

A word on the solubility: it is how much of the substance goes into solution per volume.

The record behind these values is US20250179028A1, “ACRYLAMIDE COMPOUNDS” (NRG THERAPEUTICS LTD, priority 2022, published 2025).
